Experimental data taken from publication PMC12134986, “Synthesis, characterization and antidiabetic studies of novel amantadine-derived Schiff base (AHB) and its Zn(II), Co(II), Cr(III) and VO(IV) complexes” (RSC Advances, 2025).

Tests used:
α-amylase = test: In vitro α-amylase inhibition activity (starch-iodine, 580 nm); format: biochemical
Method: In vitro α-amylase inhibition studies were performed following a reported methodology with slight modification.[20] First, to prepare our reaction mixture, 10 μL of enzyme solution (0.1 mg mL^−1) was combined with a 10 mM phosphate buffer at pH 6.9 (6 mM NaCl), and then mixed with the various concentrations of the tested sample. The resultant reaction mixtures placed in a microplate were incubated for 30 minutes at 37 °C. After the incubation period, 40 μL of starch solution (1%) was added; subsequently, this assay plate was incubated at 37 °C for 10 minutes. Finally, the reaction was terminated by adding 20 μL of 1.0 M HCl to the prepared solution, followed by the addition of 75 μL of iodine solution. Quantification was performed spectrophotometrically at 580 nm. […] Inhibition activity (%) was measured using eqn (1).1 [drawing 1] Here, the control sample excluded the α-amylase and the tested sample. The inhibitor concentration used to inhibit α-amylase activity (50%) under assay was determined as IC50 values. The findings were depicted as means ± SD values, obtained from microplate readers.

α-glucosidase = test: In vitro α-glucosidase inhibitory activity (pNPG substrate, absorbance at 405 nm); format: biochemical
Method: After the pre-incubation, pNPG (substrate, 30 μL, 5 mM) prepared in 0.1 M phosphate buffer (pH 6.8) was poured into the wells of the microplate, which were then incubated at 37 °C for 20 minutes. […] For inhibition studies, various concentrations of test samples were utilized. […] All data were presented as means ± SD values, obtained from a microplate reader for all experiments.

With “(E)-2-((adamantan-2-ylimino)methyl)-6-bromo-4-chlorophenol [AHB]” the “α-amylase inhibition, result in words” value (α-amylase) was “relatively inactive” and the “α-glucosidase inhibition, result in words” value (α-glucosidase) was “relatively inactive”.
